Drawing on patent publication US12054487B2, “Muscarinic acetylcholine M1 receptor antagonists” (Contineum Therapeutics, Inc., priority 2018, dated 2024), this text covers IC50 for 19 compounds.

Type in all cases: cell-based
In one assay the target is T1, human M1 receptor (Homo sapiens, UniProt P11229).
T1 construct: host or cells: CHO-K1
T1 sequence (P11229 1-460): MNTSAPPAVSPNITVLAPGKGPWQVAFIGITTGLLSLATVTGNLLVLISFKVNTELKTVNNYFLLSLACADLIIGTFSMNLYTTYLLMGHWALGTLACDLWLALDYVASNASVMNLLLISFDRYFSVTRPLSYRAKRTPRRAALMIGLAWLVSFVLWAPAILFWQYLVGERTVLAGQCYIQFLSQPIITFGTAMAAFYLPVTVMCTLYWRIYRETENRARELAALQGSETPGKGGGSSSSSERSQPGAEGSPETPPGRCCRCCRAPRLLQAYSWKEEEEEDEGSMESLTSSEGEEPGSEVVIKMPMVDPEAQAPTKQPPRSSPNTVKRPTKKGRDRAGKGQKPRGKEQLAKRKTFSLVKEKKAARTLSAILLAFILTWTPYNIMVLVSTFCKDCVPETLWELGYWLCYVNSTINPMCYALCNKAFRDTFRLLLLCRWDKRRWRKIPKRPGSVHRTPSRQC
Put plainly: In vitro functional assay of muscarinic acetylcholine receptor activity (aequorin calcium flux, antagonist mode vs EC80 acetylcholine), M1. As to conditions: CHO-K1 cells stably expressing human M1 receptor with Aequorin; decrease in EC80 acetylcholine response. How it is done: (§1) CHO-K1 cells stably expressing human M1 receptor with Aequorin (Perkin Elmer) were grown in F12 media, 10% FBS with 0.4 mg/mL geneticin and […]. Cells were grown to confluence and frozen down to be assayed at a later date. On the day of the experiment cells were thawed in a 37° C. water bath, resuspended in DMEM/HAM's F12 with HEPES (Invitrogen)+0.1% protease-free BSA (assay buffer), and spun down to remove freezing media. After centrifugation, supernatant was removed and 12 mL of assay buffer was added. Coelenterazine h (Promega) was added to the cells at a final concentration of 5 uM and incubated for 4 hours at room temperature in the dark. Compound master plate-96 deep well (Corning) were formatted in a 8-point DRC in assay buffer with 0.2% DMSO at a starting concentration of 60 uM (2×). After 4 hours of incubation, cells were plated at a concentration of 5×10^5 cells/well in 96 well white-walled, tissue culture-treated, clear-bottom plates (VWR). Compounds were added to the daughter plate, and cells plus compound were incubated at room temperature for 30 minutes in the dark.
(§2) Calcium flux was measured using the FlexStation 3 (Molecular Devices). To measure the antagonist dose-response, the EC80 of Acetylcholine was injected to the daughter plate using the automated compound transfer function of the Flex Station, and the increase in luminescence was measured over time. Antagonist activity was analyzed as a concentration dependent decrease in the EC80 acetylcholine response. Dose response curves were generated using Prism (GraphPad Software). The IC50 of the compounds was calculated from the dose response curve.
On the technique in general: A change in cytosolic calcium serves as a functional read-out for many receptors and channels.

Another assay deals with T2, M2 (Homo sapiens, UniProt P08172).
T2 sequence (P08172 1-466): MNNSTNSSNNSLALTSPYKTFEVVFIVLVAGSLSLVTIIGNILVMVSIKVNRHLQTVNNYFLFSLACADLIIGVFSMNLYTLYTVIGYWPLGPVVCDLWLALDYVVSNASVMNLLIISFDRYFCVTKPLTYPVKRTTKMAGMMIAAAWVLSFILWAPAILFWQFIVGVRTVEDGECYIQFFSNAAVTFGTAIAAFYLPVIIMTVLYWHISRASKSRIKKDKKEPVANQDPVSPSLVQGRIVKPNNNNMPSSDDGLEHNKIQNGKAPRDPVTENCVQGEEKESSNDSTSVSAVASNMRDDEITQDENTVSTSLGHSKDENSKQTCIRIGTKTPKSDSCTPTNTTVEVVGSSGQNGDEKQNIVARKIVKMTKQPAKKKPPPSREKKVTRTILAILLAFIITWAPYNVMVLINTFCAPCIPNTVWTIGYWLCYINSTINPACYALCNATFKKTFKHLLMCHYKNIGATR
Put plainly: In vitro functional assay of muscarinic acetylcholine receptor activity, M2. As to conditions: antagonist activity; M2 method not separately described. The protocol: [The procedure below names another target; the source lists this target under the same test.] as §1, §2

The target of the next assay is M3 (Homo sapiens, UniProt P20309). In words: In vitro functional assay of muscarinic acetylcholine receptor activity, M3. The conditions noted are these: antagonist activity; M3 method not separately described. The protocol:
[The procedure below names another target; the source lists this target under the same test.] as §1, §2

SMILES strings stand for the structures. pIC50: −log10 of the molar value.

As usually defined, the pIC50 is −log10 of the IC50, conventionally taken in molar units.

Sequence of M3 (P20309 whole entry): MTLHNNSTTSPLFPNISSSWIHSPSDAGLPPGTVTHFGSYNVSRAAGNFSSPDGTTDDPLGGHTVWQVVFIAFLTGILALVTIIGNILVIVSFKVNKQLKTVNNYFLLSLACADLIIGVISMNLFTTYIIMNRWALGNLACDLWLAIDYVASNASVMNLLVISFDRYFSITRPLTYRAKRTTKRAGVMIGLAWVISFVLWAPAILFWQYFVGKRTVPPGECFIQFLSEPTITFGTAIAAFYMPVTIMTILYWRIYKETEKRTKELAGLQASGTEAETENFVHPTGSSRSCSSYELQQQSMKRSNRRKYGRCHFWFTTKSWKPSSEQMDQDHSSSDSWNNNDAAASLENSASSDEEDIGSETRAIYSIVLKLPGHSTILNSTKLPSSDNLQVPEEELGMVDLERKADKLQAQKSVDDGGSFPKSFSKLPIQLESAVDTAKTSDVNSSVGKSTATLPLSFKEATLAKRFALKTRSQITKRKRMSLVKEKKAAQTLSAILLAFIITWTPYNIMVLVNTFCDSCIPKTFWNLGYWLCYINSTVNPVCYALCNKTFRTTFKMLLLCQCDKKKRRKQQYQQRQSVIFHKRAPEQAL

Consider `O=C1[C@@H](CCCc2cccc3ncnn23)C[C@H]2CN(c3ncc(F)cn3)CCN12` [Example 35, (7S,8aS)-7-(3-([1,2,4]triazolo[1,5-a]pyridin-5-yl)propyl)-2-(5-fluoropyrimidin-2-yl)hexahydropyrrolo[1,2-a]pyrazin-6(2H)-one], for which the figures for the pIC50 at human M1 receptor, on M2 and on M3 were above 7.00, below 5.00 and below 5.00, respectively.
As to `COc1cc(N2CCN3C(=O)[C@@H](CCCc4cccc5ncnn45)C[C@H]3C2)ccn1` [Example 37, (7S,8aS)-2-(2-methoxypyridin-4-yl)-7-(3-{[1,2,4]triazolo[1,5-a]pyridin-5-yl}propyl)-octahydropyrrolo[1,2-a]pyrazin-6-one], the figures for the negative-log IC50 (pIC50) at human M1 receptor, at M2 and on M3 were above 7.00, 5.00 to 6.00 and 5.00 to 6.00, respectively.
Consider `COc1ccc(N2CCN3C(=O)[C@@H](CCCc4cccc5ncnn45)C[C@H]3C2)cn1` [Example 38, (7S,8aS)-7-(3-([1,2,4]triazolo[1,5-a]pyridin-5-yl)propyl)-2-(6-methoxypyridin-3-yl)hexahydropyrrolo[1,2-a]pyrazin-6(2H)-one], for which the pIC50 was 5.00 to 6.00 at human M1 receptor, below 5.00 against M2 and below 5.00 on M3.
For `O=C1[C@@H](CCCc2cccc3ncnn23)C[C@H]2CN(c3ccc(OC(F)F)cn3)CCN12` [Example 39, (7S,8aS)-7-(3-([1,2,4]triazolo[1,5-a]pyridin-5-yl)propyl)-2-(5-(difluoromethoxy)pyridin-2-yl)hexahydropyrrolo[1,2-a]pyrazin-6(2H)-one], the pIC50 on human M1 receptor is 6.00 to 7.00; at M2 it was below 5.00; on M3, 5.00 to 6.00.
The corresponding values for `Cc1ccc(N2CCN3C(=O)[C@@H](CCCc4cccc5ncnn45)C[C@H]3C2)nc1` [Example 40, (7S,8aS)-7-(3-([1,2,4]triazolo[1,5-a]pyridin-5-yl)propyl)-2-(5-methylpyridin-2-yl)hexahydropyrrolo[1,2-a]pyrazin-6(2H)-one] are above 7.00, below 5.00 and below 5.00.
On to `O=C1[C@@H](CCCc2cccc3ncnn23)C[C@H]2CN(c3ccc(C4CC4)cn3)CCN12` [Example 45, (8aS)-7-(3-([1,2,4]triazolo[1,5-a]pyridin-5-yl)propyl)-2-(5-cyclopropylpyridin-2-yl)hexahydropyrrolo[1,2-a]pyrazin-6(2H)-one], for which the pIC50 was above 7.00 at human M1 receptor, above 7.00 against M2 and 6.00 to 7.00 at M3.
With `O=C1[C@@H](CCCc2cccc3ncnn23)C[C@H]2CN(c3ccc(F)cc3)CCN12` [Example 47, (7S,8aS)-7-(3-([1,2,4]triazolo[1,5-a]pyridin-5-yl)propyl)-2-(4-fluorophenyl)hexahydropyrrolo[1,2-a]pyrazin-6(2H)-one], the pIC50 on human M1 receptor was 6.00 to 7.00; at M2, below 5.00; against M3, below 5.00.
Consider `Cc1ccc(N2CCN3C(=O)[C@@H](CCCc4cccc5ncnn45)C[C@H]3C2)nn1` [Example 48, (7S,8aS)-7-(3-([1,2,4]triazolo[1,5-a]pyridin-5-yl)propyl)-2-(6-methylpyridazin-3-yl)hexahydropyrrolo[1,2-a]pyrazin-6(2H)-one], for which the values for the pIC50 at human M1 receptor, against M2 and at M3 were above 7.00, 5.00 to 6.00 and 5.00 to 6.00, respectively.
Regarding `COCc1ccc(N2CCN3C(=O)[C@@H](CCCc4cccc5ncnn45)C[C@H]3C2)nc1` [Example 49, (7S,8aS)-7-(3-([1,2,4]triazolo[1,5-a]pyridin-5-yl)propyl)-2-(5-(methoxymethyl)pyridin-2-yl)hexahydropyrrolo[1,2-a]pyrazin-6(2H)-one], the pIC50 on human M1 receptor is above 7.00; on M2 it was 5.00 to 6.00; on M3, 5.00 to 6.00.
On to `N#Cc1cc(N2CCN3C(=O)[C@@H](CCCc4cccc5ncnn45)C[C@H]3C2)ccc1F` [Example 52, 5-((7S,8aS)-7-(3-([1,2,4]triazolo[1,5-a]pyridin-5-yl)propyl)-6-oxohexahydropyrrolo [1,2-a]pyrazin-2(1H)-yl)-2-fluorobenzonitrile], for which the negative-log IC50 (pIC50) at human M1 receptor is 6.00 to 7.00; at M2, 6.00 to 7.00; against M3, 5.00 to 6.00.
For `O=C1[C@@H](CCCc2cccc3ncnn23)C[C@H]2CN(c3ccc(CO)cn3)CCN12` [Example 53, (7S,8aS)-7-(3-([1,2,4]triazolo[1,5-a]pyridin-5-yl)propyl)-2-(5-(hydroxymethyl)pyridin-2-yl)hexahydropyrrolo[1,2-a]pyrazin-6(2H)-one], the figures for the negative logarithm of the IC50 (pIC50) on human M1 receptor, against M2 and against M3 were above 7.00, 5.00 to 6.00 and below 5.00, respectively.
Taken in the same sequence, the figures for `Cn1cnc2cccc(CCC[C@H]3C[C@H]4CN(c5ccc(C#N)cn5)CCN4C3=O)c21` [Example 54, 6-((7S,8aS)-7-(3-(1-methyl-1H-benzo[d]imidazol-7-yl)propyl)-6-oxohexahydropyrrolo[1,2-a]pyrazin-2(1H)-yl)nicotinonitrile] were above 7.00, 6.00 to 7.00 and 5.00 to 6.00.
Taken in the same sequence, the figures for `Cn1ncc2cccc(CCC[C@H]3C[C@H]4CN(c5ccc(C#N)cn5)CCN4C3=O)c21` [Example 55, 6-((7S,8aS)-7-(3-(1-methyl-1H-indazol-7-yl)propyl)-6-oxohexahydropyrrolo[1,2-a]pyrazin-2(1H)-yl)nicotinonitrile] were 6.00 to 7.00, 5.00 to 6.00 and 5.00 to 6.00.
The corresponding values for `N#Cc1ccc(N2CCN3C(=O)[C@@H](CCCc4cccnn4)C[C@H]3C2)nc1` [Example 56, 6-((7S,8aS)-6-oxo-7-(3-(pyridazin-3-yl)propyl)hexahydropyrrolo[1,2-a]pyrazin-2(1H)-yl)nicotinonitrile] are above 7.00, 6.00 to 7.00 and 6.00 to 7.00.
For the compound `Cc1nccnc1CCC[C@H]1C[C@H]2CN(c3ccc(C#N)cn3)CCN2C1=O` [Example 57, 6-((7S,8aS)-7-(3-(3-methylpyrazin-2-yl)propyl)-6-oxohexahydropyrrolo[1,2-a]pyrazin-2(1H)-yl)nicotinonitrile], the values for the negative logarithm of the IC50 (pIC50) at human M1 receptor, at M2 and at M3 were 5.00 to 6.00, 5.00 to 6.00 and below 5.00, respectively.
In the case of `N#Cc1ccc(N2CCN3C(=O)[C@@H](CCCc4cccn5nccc45)C[C@H]3C2)nc1` [Example 58, 6-((7S,8aS)-6-oxo-7-(3-(pyrazolo[1,5-a]pyridin-4-yl)propyl)hexahydropyrrolo[1,2-a]pyrazin-2(1H)-yl)nicotinonitrile], the values for the pIC50 at human M1 receptor, against M2 and at M3 were above 7.00, 6.00 to 7.00 and 6.00 to 7.00, respectively.
For the compound `N#Cc1ccc(N2CCN3C(=O)[C@@H](CCCc4cccc5ncccc45)C[C@H]3C2)nc1` [Example 59, 6-((7S,8aS)-6-oxo-7-(3-(quinolin-5-yl)propyl)hexahydropyrrolo[1,2-a]pyrazin-2(1H)-yl)nicotinonitrile], the pIC50 on human M1 receptor was above 7.00; against M2 it was 6.00 to 7.00; at M3 it was 5.00 to 6.00.
`N#Cc1ccc(N2CCN3C(=O)[C@@H](CCCc4cccc5nccnc45)C[C@H]3C2)nc1` [Example 60, 6-((7S,8aS)-6-oxo-7-(3-(quinoxalin-5-yl)propyl)hexahydropyrrolo[1,2-a]pyrazin-2(1H)-yl)nicotinonitrile]: the pIC50 on human M1 receptor is above 7.00; on M2, above 7.00; against M3, 6.00 to 7.00.
As for `N#Cc1ccc(N2CCN3C(=O)[C@@H](CCCc4cccc5c4NCCN5)C[C@H]3C2)nc1` [Example 61, 6-((7S,8aS)-6-oxo-7-(3-(1,2,3,4-tetrahydroquinoxalin-5-yl)propyl)hexahydropyrrolo[1,2-a]pyrazin-2(1H)-yl)nicotinonitrile], the results for the pIC50 on human M1 receptor, at M2 and on M3 were 6.00 to 7.00, 5.00 to 6.00 and below 5.00, respectively.
